Reference: US20240300975A1, “DIMETHYL-SUBSTITUTED THIAZOLOLACTAM COMPOUND AND USE THEREOF” (D3 Bio (Wuxi) Co., Ltd., priority 2021, published 2024)

Tests used:
[1] = system: human melanoma A375 cells; test: In vivo efficacy in mouse model of human melanoma A375; settings: for TGI: PO, BID, day 21, A375 xenograft nude mouse
Procedure: The anti-tumor effect of WX001 was evaluated using a subcutaneous xenograft tumor model of human melanoma A375 cells in nude mouse.
• Species: mouse • Strain: BALB/c nude mouse • Age: 6-8 weeks old • Gender: female • Body weight: 18-22 grams • Supplier: Vital River Laboratory Animal Technology Co., Ltd.
• 1) Assay cells and culture: Human melanomaA375 cells were cultured in monolayer in vitro. The culture conditions were DMEM medium plus 10% fetal bovine serum, and a 37° C. 5% CO2 incubator. Routine digestion with trypsin-EDTA was performed twice a week for passage. When the cell saturation was 80%-90% and the amount reached the requirement, the cells were harvested, counted, and inoculated; • 2) Tumor tissue inoculation and grouping: 0.1 mL (5×10^5) of A375 cells were subcutaneously inoculated into the right armpit of each mouse. When the average tumor volume reached 170 mm^3, the animals were randomly divided into 4 groups and the administration was started.
• 3) Daily observation of assay animals: The development of this assay protocol and any modifications were evaluated and approved by the Institutional Animal Care and Use Committee (IACUC). The use and welfare of assay animals were carried out in accordance with the regulations of the Association for Assessment and Accreditation of Laboratory Animal Care (AAALAC). Animals were monitored daily for health and death. Routine examinations included observation of tumor growth and the effects of drug treatment on the animals' daily behavior such as behavioral activities, food and water intake (visual inspection only), weight changes (weight measurements twice a week), appearance signs or other abnormalities. Animal deaths and side effects in each group were recorded based on the number of animals in each group.
• a) Vehicle group: 5% DMSO+95% (20% HP-β-CD). • b) Assay compound group: A quantitative amount of the assay compound was weighed in a formulation bottle. A corresponding volume of DMSO was added and then the mixture was vortexed to obtain a clear solution. A corresponding volume of 20% HP-β-CD was added and then the mixture was vortexed to obtain a homogeneous suspension.
• a) Tumor diameter was measured twice a week with a vernier caliper. The calculation formula of tumor volume was: TV=1/2×a×b^2, wherein a and b represent the long and short diameters of tumor, respectively; • b) The tumor-inhibitory efficacy of the compound was evaluated by TGI (%). TGI (%) reflected the inhibition rate of tumor growth. TGI (%) was calculated as follows: TGI (%)={[1−(average tumor volume at the end of administration of a treatment group−average tumor volume at the beginning of administration of this treatment group)]/(average tumor volume at the end of treatment in a solvent control group−average tumor volume at the beginning of treatment in the solvent control group)}×100%.

mouse plasma albumin = test: Plasma protein binding (PPB), mouse plasma; assay type: in vitro ADME; settings: ultracentrifugation, 37° C., 4 h
Procedure: The binding degree of the assay compound to human/mouse/rat/canine/monkey plasma albumin was studied.
• 1) Matrix preparation: on the day of the assay, plasma was thawed in cold water and centrifuged at 3220 rpm for 5 min to remove all clots. The pH of the resulting plasma was measured and adjusted to 7.4±0.1 using 1% phosphoric acid or 1N sodium hydroxide as needed. • 2) Dilution procedure for the assay compound: the assay compound was dissolved in dimethyl sulfoxide (DMSO) to prepare stock solutions with concentrations of 10 mM and 2 mM, respectively. A 40 μM working solution was prepared by diluting 2 μL of stock solution (2 mM) with 98 μL of DMSO. A 400 μM working solution of the control compound was prepared by diluting 10 μL of stock solution with 240 μL of DMSO. The working solution of the compound (5 μL) was mixed well with a blank matrix (995 μL) at a ratio of 1:200 to prepare a loading matrix.
• a) An equal volume of 30 μL of loading matrix (n=2) was transferred to a sample collection plate to prepare a time 0 (TO) sample for residue determination. The sample was immediately matched with the corresponding blank buffer to a final volume of 60 μL, and the volume ratio of plasma to buffer in each well was 1:1. […] The mixture was centrifuged at 4000 rpm for 20 min and 100 μL of supernatant from each sample was analyzed by LC-MS/MS.

## Cc1cccc(CN2C(=O)c3nc(-c4nc(Nc5ccnn5C)ncc4C)sc3C2(C)C)n1 [WX001]
[1]; 5 mg/kg
  TGI: 36%
[1]; 10 mg/kg
  TGI: 81%
[1]; 20 mg/kg
  TGI: 104%
[1]; 5, 10, 20 mg/kg PO BID, during the administration
  tolerance: the tolerance is good
[1]; 5, 10, 20 mg/kg PO BID, to the 21st day
  body weight of animals: did not decrease significantly
Mouse plasma albumin
  Plasma protein binding rate (unbound %): 7.2%
